The test system of experiment [1] is human breast carcinoma cells (MDA-MB-231). The experiment in a line: subG1 cell cycle FACS apoptosis assay, MDA-MB-231 cells. As to conditions: about 24 hours; for apoptosis-inducing activity (subG1) relative to peptides SEQID No 28 and SEQID No 1: MDA-MB-231, SEQID No 41 at 50 μM versus monomeric peptides at 100 μM, FIG. 18. In kind it is cell-based. The protocol: (§1) The adherent cells (A375 and BxPC-3 cells and MDA-MB-231, respectively) are seeded 24 hours before induction in 6-well plates in culture medium. For this, the cells are washed with PBS, then incubated with trypsin/EDTA solution at 37 degrees Celsius and suspended in culture medium. The 6-well plates are loaded with 1×10^5 cells/cm^2 in culture medium and the cells incubated for 24 hours until induction with the peptides in the incubator. For induction, the peptides are diluted in fresh culture medium. As control solutions, culture medium without peptide (DMSO-containing) in culture medium or etoposide solution is added. The cells are washed with PBS. Thereafter the peptide solution in culture medium is added to the cells. After incubation in the incubator (37° C., 5% CO2) between 1.5 and 24 hours, the cell supernatant is transferred to 15 ml centrifuge tubes, the cells are washed with 0.75 ml PBS and then with 0.5 ml versene solution. Both washings are combined with the cell supernatant. The cells are then added with 0.5 ml of trypsin/EDTA solution and incubated at about 37° C. for at most 10 minutes until the cells detached. The cell suspension is combined with cell supernatant and washings and centrifuged at about 130 g for about 10 minutes. After removing the supernatant, the cells are suspended in 400 μl of cell culture medium (without serum) and mixed with 1.2 ml of 80% ethanol/20% PBS (v/v) and incubated for 1 to 7 days at −20° C. For analysis, the cells are centrifuged at 130 g for 10 min, suspended in 2 ml PBS, and centrifuged again for 5 min. The cells are suspended in 700 μl PI buffer and incubated for 10 min at 37° C. in the dark. Subsequently, the cells are stored dark for a maximum of four hours in an ice bath, then the FACS analysis is performed.
The second method analyzes the cell cycle phases which is drawn from the relative DNA content. Cells labeled by a fluorescent dye, using either DAPI or propidium iodide (PI) were analyzed by a cell sorter. The protocols for cell cultivation, treatment and preparation and staining of the cells for the flow cytometry is given in separate examples. […] When cells die by apoptosis, cellular changes lead to diminished DNA content resulting in a new peak located before the G0/G1 peak, often called “subG1” peak (Broecker-Preuss et al. 2015; Darzynkiewicz et al., 1992; Dbaibo et al. 1998; Fischbeck et al. 2011).
The “Flowing Software 2” program is used to draw from the raw data of the flow cytometer an FSC/SSC plot. This first step is performed in order to analyze a selected cell fraction excluding cells with both small FSC and small SSC values. Therefore, a gating area is drawn in a two-dimensional FSC/SSC plot (region R-1) which contains mainly intact cells, but no small vesicles. This is initially done for each cell type using reference cells which were not incubated with substances inducing cell death. By this selection of the cell fraction, a bias is prevented which would include a very high number of small cellular vesicles (apoptotic bodies) that are formed by membrane blebbing from dying cells, which have a low DNA content but which, by their large number, would increase the fraction of presumptive subG1 cells. […] In this DNA content plot, an analytical region is drawn in the area of lower DNA content to count the cells that show a subG1 peak, as illustrated in FIG. 1. The fraction of apoptotic cells is defined as the fraction of cells with DNA content in the subG1 region as part of the total number of cells in the DNA content plot (FIG. 1).
The evaluation of the FACS analysis to determine the subG1 data was also carried out with the program Flowing Software, version 2.5.1. The fluorescence in the respective analysis channel for DAPI or propidium iodide was plotted as a histogram, the data from the respectively defined region R-1 being utilized (see FIG. 1). […]

The subject of experiment [2] is BxPC-3 human pancreatic cancer cells. The experiment is described as follows: subG1 cell cycle FACS apoptosis assay, BxPC-3 cells. It counts as cell-based. As to conditions: BxPC-3, Protocol B, about 24 hours; for apoptosis-inducing activity (subG1) relative to peptides SEQID No 28 and SEQID No 27: SEQID No 41 at 50 μM versus monomeric peptides at 100 μM, FIG. 19. As to the method:
(§2) To transfer adherent cells (A375 and BxPC-3 cells) after culture, cells are washed twice with PBS. To detach the cells, the enzyme biotase is used according to the manufacturer's instructions. For this purpose, after washing with PBS, the cells are mixed with biotase (5 ml of biotase solution per 75 cm^2 surface of the cell culture bottles) and incubated for 5 min at 37 degrees Celsius, and the biotase is separated by centrifugation. Cells cultivated in suspension (MEC-1 and lymphocytes) were transferred by dilution. The cells are suspended in culture medium and counted, each time 1.5×10^5 cells/cm^2 are seeded in 48-well plates and cultured for between 1.5 and 24 hours at 37 degrees Celsius, 5% CO2. Peptides are pre-diluted from stock solution with culture medium and 200 μl of peptide solution added so that final concentrations of 30 to 500 μM peptide are present in at most 1% (v/v) DMSO. As control solutions, culture medium without peptide (DMSO-containing) in culture medium or etoposide solution is added. After incubating the cells for several hours, the cell supernatant is transferred to a FACS tube for each batch and, after washing the cells with PBS, the wash solution is added. Then the cells are incubated with 200 μl of biotase solution for 10 min, 37° C., the cells with the biotase are also transferred to the FACS tube and the cells are collected by centrifugation for 5 min. The cell pellet is suspended in 500 μl of serum-free culture medium, then 1.5 ml of cold 80% ethanol (ethanol/PBS-80/20, v/v, stored at −20° C.) is added, the FACS tubes sealed and stored at −20 degrees Celsius for 15 to 18 h. Thereafter, the cells are centrifuged for 5 minutes at 120 g, suspended after removal of the supernatant in 2 ml PBS and incubated at 37 degrees Celsius for 30 minutes. After re-centrifugation, the cells are suspended in 0.5 ml DAPI solution and incubated for 15 min at 20 degrees Celsius in the dark. Thereafter, the cells are stored dark for a maximum of four hours in an ice bath, followed by the FACS analysis.
as §1, with “performed. […]” for “performed.”

Experiment [3] has as its system A375 melanoma cells. The experiment is described as follows: subG1 cell cycle FACS apoptosis assay, A375 melanoma cells. It counts as cell-based, human. As to conditions: A375, Protocol B, 100 μM, about 24 hours, FIG. 2. As to the method:
as §2, §1
The proportion of cells which have died was determined by two methods, both rely on the analysis of cells by flow cytometry, often called FACS analysis. […]

“Also recorded” adds a separate entry of the source.

As to q-k-w-m-v-v-y-f-r-k [SEQID No 28], the “apoptosis-inducing activity (subG1), comparison in words” value (shortened to “apoptosis-inducing activity … in words”) in experiment [1] (MDA-MB-231, 100 μM, FIG. 15) was “higher apoptosis-inducing activity”; in experiment [1] (MDA-MB-231, 100 μM, FIG. 15, listed as SEQID NO 28) it was “improvement over SEQID NO 27”.
On to m-v-v-y-f-r-k [SEQID No 4], for which the “apoptosis-inducing activity … in words” value in experiment [1] (MDA-MB-231, 200 μM, FIG. 13) is “increased apoptosis-inducing activity compared to the peptide SEQ C1”.
For the substance k-w-m-v-v-y-f-r [SEQID No 9], in experiment [2] (100 μM, FIG. 14), the “apoptosis efficiency (subG1) in view of Peptide SEQ C1” value is “at least fourfold”; the “apoptosis efficiency (subG1) in view of Peptide SEQ No 12” value was “at least threefold”; the “apoptosis induction (subG1), comparison in words” value (shortened to “apoptosis induction (subG1)”) is “stronger apoptosis induction compared to SEQ C1; also recorded: strongly improved activity compared to peptide SEQID No 1”. For the same substance, the “apoptosis efficiency (subG1), comparison in words” value in experiment [3] is on record as “extraordinary increased activity compared to peptide SEQ C1”.
As to w-m-v-v-y-f-r [SEQID No 1], the “apoptosis induction (subG1)” value in experiment [2] (100 μM, FIG. 14) is on record as “stronger apoptosis induction compared to SEQ C1”. Besides, in experiment [1] (MDA-MB-231, 200 μM, FIG. 13), the “apoptosis-inducing activity … in words” value was “increased apoptosis-inducing activity compared to the peptide SEQ C1”.
Take “k-k-w-m-v-v-y-f-r-k-s-g-s-g-s-k-k-w-m-v-v-y-f-r-k [SEQID No 41]”: the “apoptosis-inducing activity (subG1) relative to peptides SEQID No 28 and SEQID No 27” value was “at least double” in experiment [2] and “more than two-fold” in experiment [2] (listed as dimeric peptide). Also, the “apoptosis-inducing activity (subG1) relative to peptides SEQID No 28 and SEQID No 1” value in experiment [1] is “at least double”; in experiment [1] (listed as dimeric peptide) it was “more than two-fold”.
Consider m-v-v-y-f-r-w [SEQID No 3], for which the “apoptosis induction (subG1)” value in experiment [2] (100 μM, FIG. 14) is recorded as “stronger apoptosis induction compared to SEQ C1”. Moreover, the “apoptosis-inducing activity … in words” value in experiment [1] (MDA-MB-231, 200 μM, FIG. 13) was “increased apoptosis-inducing activity compared to the peptide SEQ C1”.
On the same counts, the results for k-m-v-v-y-f-r [SEQID No 2] are “stronger apoptosis induction compared to SEQ C1” and “increased apoptosis-inducing activity compared to the peptide SEQ C1”.
As for r-s-t-q-k-w-m-v-v-y-f-r-k [SEQID No 40], in experiment [2] (100 μM, FIG. 17), the “apoptosis efficiency (subG1), comparison in words” value is “weaker activity”. Further, the “apoptosis-inducing activity … in words” value in experiment [1] (MDA-MB-231, 100 μM, FIG. 16, listed as SEQID 40) is reported as “slightly smaller efficiency than SEQID No 33”.
For the substance w-w-m-v-v-y-f-r [SEQID No 12], the “apoptosis induction (subG1)” value in experiment [2] (100 μM, FIG. 14) is recorded as “stronger apoptosis induction compared to SEQ C1”. The “apoptosis-inducing activity … in words” value in experiment [1] (MDA-MB-231, 200 μM, FIG. 13) is “slightly decreased activity compared to peptide SEQID No 1; also recorded: remarkably improved efficiency than SEQ C1”.
As for “r-a-s-k-s-q-t-v-k-k-w-m-v-v-y-f-r-k-s-a-r [SEQID No 35]”, the “apoptosis efficiency (subG1), in words” value in experiment [2] (100 and 200 μM, Examples 107-110) is reported as “slightly higher apoptosis than the peptide sequence SEQID NO 33; also recorded: considerable efficiency to induce apoptosis in pancreatic cancer cells”.

The values above are taken from patent publication US20220160812A1, “A PHARMACEUTICALLY ACTIVE SUBSTANCE” (Cytopharma GmbH, priority 2019, published 2022).
